# Experimental data: patent EP4667465A1, “SALT OF BENZO-NITROGEN HETEROAROMATIC RING DERIVATIVE, CRYSTALLINE FORM, AND PHARMACEUTICAL USE THEREOF” (Haisco Pharmaceutical Group Co., Ltd., priority 2023, dated 2024)
# Key:
# complement factor B = complement factor B (Homo sapiens, UniProt P00751); settings: in words; disclosed in PCT/CN 2022/113216; cited from earlier work
# C3a level = settings: in words; disclosed in PCT/CN 2022/113216; cited from earlier work
# Caco-2 cells = settings: Caco2, compared with the trifluoroacetate of LNP023; in words
# Procedure: (§1) In the experiment, a monolayer of Caco-2 cells was used, and incubated in triplicate in a 96-well Transwell plate. A transport buffer solution (HBSS, 10 mM HEPES, pH 7.4 ± 0.05) containing the compound of the present invention (2 µM) or the control compound digoxin (10 µM), nadolol (2 µM) or metoprolol (2 µM) was added to the administration end hole on the apical side or basal side. A DMSO-containing transport buffer solution was added to the corresponding receiving end hole. After incubation for 2 hours at 37°C ± 1°C, the cell plate was removed, and an appropriate amount of samples was taken from both the apical side and basal side and transferred to a new 96-well plate. Subsequently, acetonitrile containing an internal standard was added to precipitate the protein. The samples were analyzed using LC MS/MS, and the concentrations of the compound of the present invention and the control compound were determined. Concentration data were used to calculate apparent permeability coefficients for transport from the apical side to the basal side, and from the basal side to the apical side of the cell monolayer, and thus to calculate the efflux ratio. The integrity of the cell monolayer after 2 hours of incubation was evaluated by leakage of Lucifer Yellow.
# [1] = Pharmacokinetic test in rats; format: in vivo, SD rats
# Procedure: Experimental objective: in this experiment, a single dose of the test substance was administered to SD rats intravenously and intragastrically, and the concentration of the test substance in plasma of the rats was measured to evaluate the pharmacokinetic characteristics of the test substance in the rats. Experimental animals: male SD rats, 200-250 g, 6-8 weeks old, 6 rats/compound, purchased from Chengdu Dossy Experimental Animals Co., Ltd. Experimental method: on the day of the experiment, 6 SD rats were randomly grouped according to their body weights. […] Sampling: before and after the administration, 0.15 mL of blood was taken from the orbits under isoflurane anesthesia and placed in an EDTAK2 centrifuge tube. Centrifugation was carried out at 5000 rpm at 4°C for 10 min, and the plasma was collected. The plasma collection time points for IV&PO groups were 0, 5 min, 15 min, 30 min, 1 h, 2 h, 4 h, 6 h, 8 h, and 24 h. Before analysis and detection, all samples were stored at -60°C. The samples were analyzed quantitatively by LC-MS/MS.
# [2] = Pharmacokinetic test in monkeys; format: in vivo, cynomolgus monkeys; settings: compared with the trifluoroacetate of LNP023, in words
# Procedure: Experimental objective: in this experiment, a single dose of test substance was administered to cynomolgus monkeys intravenously and intragastrically, and the concentration of the test substance in plasma of the monkeys was measured to evaluate the pharmacokinetic characteristics of the test substance in the monkeys.
# Experimental animals: male cynomolgus monkeys, 3-5 kg, 3-6 years old, 6 monkeys/compound, purchased from Suzhou Xishan Biotechnology Co., Ltd.
# Experimental method: on the day of the experiment, 6 monkeys were randomly grouped according to their body weights. The cynomolgus monkeys were fasted with water available for 14-18 h one day before the administration, and were fed 4 h after the administration.
# Sampling: before and after the administration, 1.0 mL of blood was taken from the limb veins and placed in an EDTAK2 centrifuge tube. Centrifugation was carried out at 5000 rpm at 4°C for 10 min, and the plasma was collected.
# The plasma collection time points for IV&PO groups were 0, 5 min, 15 min, 30 min, 1 h, 2 h, 4 h, 6 h, 8 h, 10 h, 12 h, and 24 h.
# Before analysis and detection, all samples were stored at -60°C. The samples were analyzed quantitatively by LC-MS/MS.
# in vitro = settings: human, Caco-2, pH 7.4
# Procedure: as §1
# [3] = Hygroscopicity (sorption isotherm curve); format: physicochemical; settings: at 80% RH
# Source text: According to the description of the hygroscopicity characteristics and the definition of hygroscopic weight gain in the Chinese Pharmacopoeia 2020 Edition, Volume IV, General Chapter 9103: Guidelines for Hygroscopicity Trials for Pharmaceuticals, • deliquescence: absorbing enough moisture to form a liquid; • extremely hygroscopic: a hygroscopic weight gain of not less than 15%; • hygroscopic: a hygroscopic weight gain of less than 15% but no less than 2%; • slightly hygroscopic: a hygroscopic weight gain of less than 2% but no less than 0.2%; and • non-hygroscopic or practically non-hygroscopic: a hygroscopic weight gain of less than 0.2%.
# [4] = Stability of the crystalline form (purity under accelerated, intermediate and long-term storage); format: physicochemical
# [5] = in rats, compared with LNP023, in words
# [6] = male, rat, po, SD rats, plasma, i.g. (10 mg/kg)
# Sequence of complement factor B (P00751 26-764): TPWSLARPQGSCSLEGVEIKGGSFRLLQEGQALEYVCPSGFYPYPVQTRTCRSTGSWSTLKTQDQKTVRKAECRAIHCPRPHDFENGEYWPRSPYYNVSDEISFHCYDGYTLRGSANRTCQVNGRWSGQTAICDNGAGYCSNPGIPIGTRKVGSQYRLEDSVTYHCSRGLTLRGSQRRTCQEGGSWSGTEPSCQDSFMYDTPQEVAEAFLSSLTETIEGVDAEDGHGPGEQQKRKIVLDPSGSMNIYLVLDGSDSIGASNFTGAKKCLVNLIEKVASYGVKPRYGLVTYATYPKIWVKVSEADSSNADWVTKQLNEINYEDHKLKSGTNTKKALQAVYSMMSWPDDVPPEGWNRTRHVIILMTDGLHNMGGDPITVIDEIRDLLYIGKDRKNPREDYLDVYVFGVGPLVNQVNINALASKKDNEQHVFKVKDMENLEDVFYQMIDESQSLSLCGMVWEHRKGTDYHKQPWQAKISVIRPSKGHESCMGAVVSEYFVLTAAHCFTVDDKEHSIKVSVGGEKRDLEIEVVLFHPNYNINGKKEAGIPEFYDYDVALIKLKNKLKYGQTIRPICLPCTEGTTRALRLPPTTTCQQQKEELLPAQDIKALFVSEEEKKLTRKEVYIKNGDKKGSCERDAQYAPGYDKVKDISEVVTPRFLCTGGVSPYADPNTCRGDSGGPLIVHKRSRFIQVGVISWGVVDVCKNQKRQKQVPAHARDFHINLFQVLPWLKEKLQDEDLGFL
compound,measurement,setting,value
"[2H]C([2H])([2H])Oc1cc(C)c2[nH]ccc2c1CN1CC[C@@H](C2CC2)C[C@H]1c1ccc(C(=O)O)cc1 [compound 1, 4-((2S,4R)-4-cyclopropyl-1-((5-(methoxy-d3)-7-methyl-1H-indol-4-yl)methyl)piperidin-2-yl)benzoic acid]",inhibitory activity against complement factor B,complement factor B,good
same,inhibition rate of C3a level in vivo,C3a level,good
"[2H]C([2H])([2H])Oc1cc(C)c2[nH]ccc2c1CN1CC[C@@H](C2CC2)C[C@H]1c1ccc(C(=O)O)cc1 [Trifluoroacetate of compound 1, 4-((2S,4R)-4-cyclopropyl-1-((5-(methoxy-d3)-7-methyl-1H-indol-4-yl)methyl)piperidin-2-yl)benzoic acid]",permeability,Caco-2 cells,better
same,maximum plasma concentration,[1]; [5],higher
same,oral bioavailability,[1]; [5],higher
same,bioavailability,[2],higher
same,oral exposure,[2],higher
same,"Papp A→B at 2 h, 2 µM",in vitro,1.77 ×10⁻⁶ cm/s
same,"Papp B→A at 2 h, 2 µM",in vitro,19.4 ×10⁻⁶ cm/s
CCO[C@H]1CCN(Cc2c(OC)cc(C)c3[nH]ccc23)[C@H](c2ccc(C(=O)O)cc2)C1 [LNP023],bioavailability,"[1]; male, rat, plasma, po, SD rats, i.g. (10 mg/kg)",49%
same,Cmax,[1]; [6],867 ng/mL
same,Tmax,[1]; [6],3.5 h
same,half-life,[1]; [6],3.39 h
same,AUC(0-t),"[1]; male, rat, po, SD rats, plasma, i.g. (10 mg/kg), read-out: AUC0-24h",9870 ng·h/mL
"[2H]C([2H])([2H])Oc1cc(C)c2[nH]ccc2c1CN1CC[C@@H](C2CC2)C[C@H]1c1ccc(C(=O)O)cc1 [4-((2S,4R)-4-cyclopropyl-1-((5-(methoxy-d3)-7-methyl-1H-indol-4-yl)methyl)piperidin-2-yl)benzoic acid]",hygroscopic weight gain,[3],about 1.15%
same,Purity,[4]; 0 day,97.80%
same,Purity,"[4]; Accelerated: 40°C ± 2°C, 75% ± 5% RH, 1 month",97.70%
same,Purity,"[4]; Accelerated: 40°C ± 2°C, 75% ± 5% RH, 2 months",97.70%
same,Purity,"[4]; Accelerated: 40°C ± 2°C, 75% ± 5% RH, 3 months",97.90%
same,Purity,"[4]; Accelerated: 40°C ± 2°C, 75% ± 5% RH, 6 months",97.80%
same,Purity,"[4]; Intermediate: 25°C ± 2°C, 60% ± 5% RH, 3 months",98.00%
same,Purity,"[4]; Intermediate: 25°C ± 2°C, 60% ± 5% RH, 6 months",97.80%
same,Purity,"[4]; Long-term: 2°C - 8°C, 3 months",97.90%
same,Purity,"[4]; Long-term: 2°C - 8°C, 6 months",97.70%
same,stability,"[4]; under accelerated, intermediate and long-term conditions, conclusion in words",good stability
